Data taken from patent publication US20170232083A1, “METHODS OF DIAGNOSIS AND TREATMENT OF CELIAC DISEASE IN CHILDREN” (priority 2014, published 2017).
Where “and” joins values, the source holds several entries; their conditions need not be identical. Identical values can stand only once. Non-standard residues stand in square brackets, D forms with d. pGlu = O=C1CC[C@@H](C(=O)O)N1

Tested on: peripheral blood mononuclear cells obtained from children
Experiment: IFNγ ELISpot PBMC assay after oral wheat bread challenge (Examples 1-2)
Format: cell-based, human
Method: An oral wheat bread challenge was conducted in DQ2.5+ children and adolescents having Celiac disease. The age ranges were 3-5, 6-10 and 11-18 years of age. An ELISpot peripheral blood mononucleated cell (PBMC) assay was performed to measure the level of IFNγ released by the PBMCs after being contacted with peptide 1, peptide 2, peptide 3, or a combination thereof. The identities of peptides 1, 2, and 3 are shown below.
The values the rows starting from “Blank (SFU)” and ending at “Pept-1/2/3 (150)” are all spot forming unit (SFU) values. The values in the parentheses in the first column are the concentration of each peptide in micrograms that were added to the PBMCs (e.g., Pept-1 50=50 micrograms of Peptide 1, Pept-1/2/3 50=50 micrograms of each of Peptide 1, Peptide 2, and Peptide 3). Pept-1=Peptide 1, Pept-2=Peptide 2, Pept-3=Peptide 3, the amino acid identities of which are mentioned above. D-Gli=deamidated gliadin. WT-Gli=wild-type gliadin. D-Glut=deamidated gluten. WT-Glut=wild-type gluten.
IFNγ ELISpot responses in 9 older children (11-17 yo) and 6 younger children (3-10 yo) were stimulated by the mixture of peptides 1, 2, and 3 described in Example 1 (each peptide at a concentration of 25 ug/mL) or stimulated by deamidated gliadin (100 ug/mL) after 3-day wheat challenge (r2=0.8, p<0.0001). The ELISpot responses were similar using either the peptide mixture of the deamidated gliadin (FIG. 1).

EQPFPQPEQPFPWQP ([pGlu]QPFPQPEQPFPWQP-NH2; SMILES NC(=O)CC[C@H](NC(=O)[C@H](Cc1c[nH]c2ccccc12)NC(=O)[C@@H]1CCCN1C(=O)[C@H](Cc1ccccc1)NC(=O)[C@@H]1CCCN1C(=O)[C@H](CCC(N)=O)NC(=O)[C@H](CCC(=O)O)NC(=O)[C@@H]1CCCN1C(=O)[C@H](CCC(N)=O)NC(=O)[C@@H]1CCCN1C(=O)[C@H](Cc1ccccc1)NC(=O)[C@@H]1CCCN1C(=O)[C@H](CCC(N)=O)NC(=O)[C@@H]1CCC(=O)N1)C(=O)N1CCC[C@H]1C(N)=O) [Peptide 2]
most active peptides in gliadin for children: most active
SFU, IFNγ ELISpot (Subject A, 5.0 × 10^5 cells per well, 50 micrograms, listed as Pept-2): 4 SFU and 3 SFU
SFU, IFNγ ELISpot (Subject A, 5.0 × 10^5 cells per well, 100 micrograms, listed as Pept-2): 5 SFU and 3 SFU
SFU, IFNγ ELISpot (Subject B, 5.0 × 10^5 cells per well, 25 micrograms, listed as Pept-2): 4 SFU and 6 SFU
SFU, IFNγ ELISpot (Subject B, 5.0 × 10^5 cells per well, 50 micrograms, listed as Pept-2): 7 SFU and 8 SFU
SFU, IFNγ ELISpot (Subject C, 5.0 × 10^5 cells per well, 50 micrograms): 4 SFU
SFU, IFNγ ELISpot (Subject D, 4.0 × 10^5 cells per well, 25 micrograms, listed as Pept-2): 17 SFU and 30 SFU
SFU, IFNγ ELISpot (Subject D, 4.0 × 10^5 cells per well, 50 micrograms, listed as Pept-2): 29 SFU and 32 SFU
SFU, IFNγ ELISpot (Subject E, 5.0 × 10^5 cells per well, 25 micrograms, listed as Pept-2): 55 SFU and 45 SFU
SFU, IFNγ ELISpot (Subject E, 5.0 × 10^5 cells per well, 50 micrograms, listed as Pept-2): 45 SFU and 43 SFU
SFU, IFNγ ELISpot (Subject E, 5.0 × 10^5 cells per well, 100 micrograms, listed as Pept-2): 67 SFU and 44 SFU
SFU, IFNγ ELISpot (Subject F, 5.0 × 10^5 cells per well, 25 micrograms, listed as Pept-2): 44 SFU and 59 SFU
SFU, IFNγ ELISpot (Subject F, 5.0 × 10^5 cells per well, 50 micrograms, listed as Pept-2): 64 SFU and 105 SFU
SFU, IFNγ ELISpot (Subject F, 5.0 × 10^5 cells per well, 100 micrograms, listed as Pept-2): 41 SFU and 59 SFU
SFU, IFNγ ELISpot (Subject G, 4.0 × 10^5 cells per well, 25 micrograms): 7 SFU
SFU, IFNγ ELISpot (Subject G, 4.0 × 10^5 cells per well, 100 micrograms, listed as Pept-2): 5 SFU and 9 SFU
SFU, IFNγ ELISpot (Subject I, 5.0 × 10^5 cells per well, 25 micrograms): 7 SFU
SFU, IFNγ ELISpot (Subject I, 5.0 × 10^5 cells per well, 50 micrograms, listed as Pept-2): 5 SFU and 6 SFU
SFU, IFNγ ELISpot (Subject J, 5.0 × 10^5 cells per well, 25 micrograms, listed as Pept-2): 85 SFU and 98 SFU
SFU, IFNγ ELISpot (Subject J, 5.0 × 10^5 cells per well, 50 micrograms, listed as Pept-2): 107 SFU and 83 SFU
SFU, IFNγ ELISpot (Subject J, 5.0 × 10^5 cells per well, 100 micrograms, listed as Pept-2): 81 SFU and 90 SFU
SFU, IFNγ ELISpot (Subject K, 3.2 × 10^5 cells per well, 25 micrograms, listed as Pept-2): 17 SFU and 22 SFU
SFU, IFNγ ELISpot (Subject K, 3.2 × 10^5 cells per well, 50 micrograms, listed as Pept-2): 19 SFU and 18 SFU
SFU, IFNγ ELISpot (Subject K, 3.2 × 10^5 cells per well, 100 micrograms, listed as Pept-2): 23 SFU and 15 SFU
SFU, IFNγ ELISpot (Subject L, 3.5 × 10^5 cells per well, 25 micrograms, listed as Pept-2): 5 SFU and 4 SFU
SFU, IFNγ ELISpot (Subject L, 3.5 × 10^5 cells per well, 100 micrograms, listed as Pept-2): 2 SFU and 4 SFU
SFU, IFNγ ELISpot (Subject M, 2.3 × 10^5 cells per well, 25 micrograms, listed as Pept-2): 28 SFU and 27 SFU
SFU, IFNγ ELISpot (Subject M, 2.3 × 10^5 cells per well, 50 micrograms, listed as Pept-2): 26 SFU and 29 SFU
SFU, IFNγ ELISpot (Subject M, 2.3 × 10^5 cells per well, 100 micrograms, listed as Pept-2): 32 SFU and 24 SFU
SFU, IFNγ ELISpot (Subject N, 2.4 × 10^5 cells per well, 100 micrograms, listed as Pept-2): 4 SFU and 7 SFU
SFU, IFNγ ELISpot (Subject P, 3.0 × 10^5 cells per well, 0.5 micrograms, listed as Pept-2): 10 SFU and 8 SFU
SFU, IFNγ ELISpot (Subject P, 3.0 × 10^5 cells per well, 1 micrograms, listed as Pept-2): 18 SFU and 11 SFU
SFU, IFNγ ELISpot (Subject P, 3.0 × 10^5 cells per well, 5 micrograms, listed as Pept-2): 19 SFU and 15 SFU
SFU, IFNγ ELISpot (Subject Q, 3.0 × 10^5 cells per well, 0.5 micrograms, listed as Pept-2): 44 SFU and 51 SFU
SFU, IFNγ ELISpot (Subject Q, 3.0 × 10^5 cells per well, 1 micrograms, listed as Pept-2): 31 SFU and 41 SFU
SFU, IFNγ ELISpot (Subject Q, 3.0 × 10^5 cells per well, 2.5 micrograms, listed as Pept-2): 44 SFU and 51 SFU
SFU, IFNγ ELISpot (Subject Q, 3.0 × 10^5 cells per well, 5 micrograms, listed as Pept-2): 30 SFU
SFU, IFNγ ELISpot (Subject R, 3.0 × 10^5 cells per well, 0.1 micrograms, listed as Pept-2): 18 SFU and 20 SFU
SFU, IFNγ ELISpot (Subject R, 3.0 × 10^5 cells per well, 0.5 micrograms, listed as Pept-2): 16 SFU and 14 SFU
SFU, IFNγ ELISpot (Subject R, 3.0 × 10^5 cells per well, 1 micrograms, listed as Pept-2): 15 SFU and 11 SFU
SFU, IFNγ ELISpot (Subject R, 3.0 × 10^5 cells per well, 5 micrograms, listed as Pept-2): 16 SFU
SFU, IFNγ ELISpot (Subject S, 3.0 × 10^5 cells per well, 0.5 micrograms, listed as Pept-2): 2 SFU and 1 SFU
SFU, IFNγ ELISpot (Subject S, 3.0 × 10^5 cells per well, 1 micrograms, listed as Pept-2): 5 SFU and 3 SFU
SFU, IFNγ ELISpot (Subject S, 3.0 × 10^5 cells per well, 2.5 micrograms, listed as Pept-2): 2 SFU and 3 SFU
SFU, IFNγ ELISpot (Subject S, 3.0 × 10^5 cells per well, 5 micrograms, listed as Pept-2): 5 SFU
SFU, IFNγ ELISpot (Subject T, 3.0 × 10^5 cells per well, 0.1 micrograms, listed as Pept-2): 33 SFU and 47 SFU
SFU, IFNγ ELISpot (Subject T, 3.0 × 10^5 cells per well, 0.5 micrograms, listed as Pept-2): 34 SFU and 39 SFU
SFU, IFNγ ELISpot (Subject T, 3.0 × 10^5 cells per well, 1 micrograms, listed as Pept-2): 41 SFU and 51 SFU
SFU, IFNγ ELISpot (Subject T, 3.0 × 10^5 cells per well, 2.5 micrograms, listed as Pept-2): 49 SFU and 56 SFU
SFU, IFNγ ELISpot (Subject T, 3.0 × 10^5 cells per well, 5 micrograms, listed as Pept-2): 68 SFU
SFU, IFNγ ELISpot (Subject U, 3.0 × 10^5 cells per well, 0.1 micrograms, listed as Pept-2): 8 SFU and 6 SFU
SFU, IFNγ ELISpot (Subject U, 3.0 × 10^5 cells per well, 0.5 micrograms, listed as Pept-2): 8 SFU and 12 SFU
SFU, IFNγ ELISpot (Subject U, 3.0 × 10^5 cells per well, 1 micrograms, listed as Pept-2): 13 SFU and 15 SFU
SFU, IFNγ ELISpot (Subject U, 3.0 × 10^5 cells per well, 2.5 micrograms, listed as Pept-2): 26 SFU and 33 SFU
SFU, IFNγ ELISpot (Subject U, 3.0 × 10^5 cells per well, 5 micrograms, listed as Pept-2): 28 SFU
T cell response in PBMC samples from children after gluten challenge (general increase in SFU in each child, Tables 2-5): induce a T cell response
